# Experimental data reported in patent US8569493B2 (Santen Pharmaceutical Co., Ltd., priority 2007, dated 2013).
# Biological target: T1, Recombinant human GR (Homo sapiens, UniProt P04150)
# T1 construct: purchased Invitrogen P2816
# T1 sequence (P04150 1-777): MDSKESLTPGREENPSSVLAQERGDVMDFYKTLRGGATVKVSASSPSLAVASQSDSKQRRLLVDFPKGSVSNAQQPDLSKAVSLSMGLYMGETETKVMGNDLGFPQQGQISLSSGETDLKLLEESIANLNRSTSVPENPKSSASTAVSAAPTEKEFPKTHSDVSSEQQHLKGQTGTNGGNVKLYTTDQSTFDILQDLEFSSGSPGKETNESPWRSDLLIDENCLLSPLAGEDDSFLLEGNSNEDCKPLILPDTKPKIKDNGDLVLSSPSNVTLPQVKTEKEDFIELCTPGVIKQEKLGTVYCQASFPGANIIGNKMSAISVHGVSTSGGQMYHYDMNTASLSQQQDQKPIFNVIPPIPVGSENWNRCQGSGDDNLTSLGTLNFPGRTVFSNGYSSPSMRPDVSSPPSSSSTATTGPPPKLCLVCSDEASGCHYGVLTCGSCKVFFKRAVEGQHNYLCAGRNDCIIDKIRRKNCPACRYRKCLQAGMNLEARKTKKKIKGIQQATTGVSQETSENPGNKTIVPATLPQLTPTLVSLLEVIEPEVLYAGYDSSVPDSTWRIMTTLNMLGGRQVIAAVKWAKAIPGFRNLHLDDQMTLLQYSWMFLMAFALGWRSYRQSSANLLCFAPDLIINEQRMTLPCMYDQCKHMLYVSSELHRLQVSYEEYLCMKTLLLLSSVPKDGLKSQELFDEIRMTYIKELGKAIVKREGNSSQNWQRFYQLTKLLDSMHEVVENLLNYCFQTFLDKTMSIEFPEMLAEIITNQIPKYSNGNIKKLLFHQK
# Assay: GR competitor assay by fluorescence polarization (binding activity to glucocorticoid receptor)
# Conditions: 20 μM test compound solution, 10 μL per well plus 5 μL 4×GS1 and 5 μL 4×GR; 2 to 4 hours at room temperature; ratio of 100% or more is indicated by 100%
# Procedure: 1. Evaluation Test for Binding Activity to Glucocorticoid Receptor (hereinafter referred to as “GR”)
# In order to evaluate a binding activity to GR, a receptor competitor assay was carried out by a fluorescence polarization method. In the assay, a GR competitor assay kit (manufactured by Invitrogen, cat No. P2816) was used, and a procedure was carried out according to the protocol attached to the kit. Hereinafter, the specific method will be described.
# (Preparation of Reagents)
# GR screening buffer: A buffer containing 10 mM potassium phosphate (pH 7.4), 20 mM sodium molybdate (Na2MoO4), 0.1 mM ethylene diamine tetraacetic acid (EDTA), 5 mM dithiothreitol (DTT), 0.1 mM stabilizing peptide and 2% dimethylsulfoxide was prepared.
# 4×GS1 solution: Fluormone™ GS1, which is a fluorescent glucocorticoid ligand, was diluted with GR screening buffer, whereby a 4 nM solution was prepared.
# 4×GR solution: Recombinant human GR was diluted with GR screening buffer, whereby a 16 nM solution was prepared.
# (Preparation of Test Compound Solution)
# After a test compound was dissolved in dimethylsulfoxide, it was diluted with GR screening buffer, whereby a 20 μM test compound solution was prepared.
# (Test Method and Measurement Method)
# 1) The test compound solution was added in an amount of 10 μL into each well of a 384-well plate, and then, 4×GS1 solution and 4×GR solution were added in an amount of 5 μL into each well, respectively.
# 2) The plate was incubated in a dark place at room temperature for 2 to 4 hours.
# 3) By using a multimode plate reader, Analyst™ HT (manufactured by LJL Biosystems), fluorescence polarization of each well was measured. As the blank, a well containing GR screening buffer in place of the test compound and 4×GS1 solution was used.
# 4) The same procedure as that in the above 1) to 3) was carried out except that GR screening buffer was used in place of the test compound solution, and the obtained result was taken as the negative control.
# 5) The same procedure as that in the above 1) to 3) was carried out except that 2 mM dexamethasone was used in place of the test compound solution, and the obtained result was taken as the positive control.
# (Calculation Equation of GR Binding Ratio)
# A GR binding ratio (%) was calculated from the following equation. GR binding ratio(%)=100×[1−(fluorescence polarization of test compound solution−fluorescence polarization of positive control solution)/(fluorescence polarization of negative control solution−fluorescence polarization of positive control solution)] (Test Results and Discussion)
row,Compound,inhibition at 10 µM [%]
1,CCCS(=O)(=O)Oc1ccc(-c2ccc3c(c2COC(=O)c2ccc(C)s2)N(C)C(=O)C(C)(C)N3)c(OC)c1 [Compound 1-35],95
2,CCCS(=O)(=O)Oc1ccc(-c2ccc3c(c2CNc2cc(F)ccc2C)N(C)C(=O)C(C)(C)N3)c(OC)c1 [Compound 1-58],100
3,COc1cc(OS(=O)(=O)C2CCCC2)ccc1-c1ccc2c(c1COC(=O)c1ccc(C)s1)N(C)C(=O)C(C)(C)N2 [Compound 1-37],94
4,COc1ccc([N+](=O)[O-])cc1OCc1c(-c2ccc(OS(C)(=O)=O)cc2OC)ccc2c1N(C)C(=O)C(C)(C)N2 [Compound 1-38],100
5,"COc1ccccc1NCc1c(-c2ccc(OS(=O)(=O)C(C)C)cc2OC)ccc2c1N(C)C(=O)C(C)(C)N2 [Compound 2-6, 7-(4-Isopropylsulfonyloxy-2-methoxyphenyl)-8-(2-methoxyphenylaminomethyl)-1,3,3-trimethyl-3,4-dihydro-1H-quinoxalin-2-one]",100
6,"CCCS(=O)(=O)Oc1ccc(-c2ccc3c(c2CNc2ccccc2OC)N(C)C(=O)C(C)(C)N3)c(OC)c1 [Compound 2-8, 8-(2-Methoxyphenylaminomethyl)-7-(2-methoxy-4-propylsulfonyloxyphenyl)-1,3,3-trimethyl-3,4-dihydro-1H-quinoxalin-2-one]",98
7,COc1cc(OS(=O)(=O)C(C)C)ccc1-c1ccc2c(c1COc1cc(F)ccc1C)N(C)C(=O)C(C)(C)N2 [Compound 1-14],100
8,COc1cc(OS(=O)(=O)C2CCCC2)ccc1-c1ccc2c(c1COc1cc(F)ccc1C)N(C)C(=O)C(C)(C)N2 [Compound 1-29],95
9,COc1ccc([N+](=O)[O-])cc1OCc1c(-c2ccc(OS(=O)(=O)CCC(F)(F)F)cc2OC)ccc2c1N(C)C(=O)C(C)(C)N2 [Compound 1-39],100
10,COc1cc(OS(C)(=O)=O)ccc1-c1ccc2c(c1COC(=O)c1ccc(C)s1)N(C)C(=O)C(C)(C)N2 [Compound 1-6],100
11,COc1cccc(S(=O)(=O)Oc2ccc(-c3ccc4c(c3COc3cc(F)ccc3C)N(C)C(=O)C(C)(C)N4)c(OC)c2)c1 [Compound 1-15],82
12,COc1cc(OS(=O)(=O)C(C)C)ccc1-c1ccc2c(c1COC(=O)c1ccc(C)s1)N(C)C(=O)C(C)(C)N2 [Compound 1-36],99
13,"COc1cc(OS(=O)(=O)CCCN(C)CCN(C)C)ccc1-c1ccc2c(c1COc1cc(F)ccc1C)N(C)C(=O)C(C)(C)N2 [Compound 3-5, 7-[4-[3-[N-(2-Dimethylaminoethyl)-N-methylamino]propylsulfonyloxy]-2-methoxyphenyl]-8-(5-fluoro-2-methylphenoxymethyl)-1,3,3-trimethyl-3,4-dihydro-1H-quinoxalin-2-one]",100
14,COc1cc(OS(=O)(=O)CCC(F)(F)F)ccc1-c1ccc2c(c1COc1cc([N+](=O)[O-])ccc1C)N(C)C(=O)C(C)(C)N2 [Compound 1-46],95
15,COc1cc(NS(C)(=O)=O)ccc1-c1ccc2c(c1COc1cc(F)ccc1C)N(C)C(=O)C(C)(C)N2 [Compound 1-25],92
16,COc1cc(OS(=O)(=O)C(F)(F)F)ccc1-c1ccc2c(c1COc1cc(F)ccc1C)N(C)C(=O)C(C)(C)N2 [Compound 1-3],99
17,COc1cc(OS(=O)(=O)CC(C)C)ccc1-c1ccc2c(c1COC(=O)c1ccc(C)s1)N(C)C(=O)C(C)(C)N2 [Compound 1-34],100
18,COc1ccc([N+](=O)[O-])cc1OCc1c(-c2ccc(OS(=O)(=O)C3CC3)cc2OC)ccc2c1N(C)C(=O)C(C)(C)N2 [Compound 1-43],100
19,COc1cc(OS(=O)(=O)C2CCCC2)ccc1-c1ccc2c(c1COc1cc([N+](=O)[O-])ccc1C)N(C)C(=O)C(C)(C)N2 [Compound 1-50],98
20,COc1ccc([N+](=O)[O-])cc1OCc1c(-c2ccc(OS(=O)(=O)C3CCCC3)cc2OC)ccc2c1N(C)C(=O)C(C)(C)N2 [Compound 1-41],100

# Results, then the compound that gave them:
row,inhibition at 10 µM [%],Compound
1,99,"CNCCN(C)CCCS(=O)(=O)Oc1ccc(-c2ccc3c(c2COc2cc(F)ccc2C)N(C)C(=O)C(C)(C)N3)c(OC)c1 [Compound 3-6, 8-(5-Fluoro-2-methylphenoxymethyl)-7-[2-methoxy-4-[3-[N-(2-methylaminoethyl)-N-methylamino]propylsulfonyloxy]phenyl]-1,3,3-trimethyl-3,4-dihydro-1H-quinoxalin-2-one]"
2,95,COc1cc(OS(=O)(=O)c2ccco2)ccc1-c1ccc2c(c1COc1cc(F)ccc1C)N(C)C(=O)C(C)(C)N2 [Compound 1-5]
3,87,COc1cc(OS(=O)(=O)Cc2ccc(Cl)cc2)ccc1-c1ccc2c(c1COc1cc(F)ccc1C)N(C)C(=O)C(C)(C)N2 [Compound 1-20]
4,100,COc1cc(OS(=O)(=O)Cc2ccccc2)ccc1-c1ccc2c(c1COc1cc(F)ccc1C)N(C)C(=O)C(C)(C)N2 [Compound 1-9]
5,91,"COc1cc(OS(C)(=O)=O)ccc1-c1ccc2c(c1COc1cc(F)ccc1C)N(C)C(=O)C(C)(C)N2 [Compound 1-1, 8-(5-Fluoro-2-methylphenoxymethyl)-7-(2-methoxy-4-methylsulfonyloxyphenyl)-1,3,3-trimethyl-3,4-dihydro-1H-quinoxalin-2-one]"
6,91,COc1cc(OS(=O)(=O)Cc2ccccc2C)ccc1-c1ccc2c(c1COc1cc(F)ccc1C)N(C)C(=O)C(C)(C)N2 [Compound 1-28]
7,85,COc1cc(OS(=O)(=O)c2ccccc2Cl)ccc1-c1ccc2c(c1COc1cc(F)ccc1C)N(C)C(=O)C(C)(C)N2 [Compound 1-8]
8,99,COc1cc(OS(=O)(=O)Cc2ccccc2Cl)ccc1-c1ccc2c(c1COc1cc(F)ccc1C)N(C)C(=O)C(C)(C)N2 [Compound 1-27]
9,94,"COc1cc(OS(=O)(=O)CCCNCc2ccccc2)ccc1-c1ccc2c(c1COc1cc(F)ccc1C)N(C)C(=O)C(C)(C)N2 [Compound 3-1, 7-[4-(3-Benzylaminopropylsulfonyloxy)-2-methoxyphenyl]-8-(5-fluoro-2-methylphenoxymethyl)-1,3,3-trimethyl-3,4-dihydro-1H-quinoxalin-2-one]"
10,68,COc1cc(OS(=O)(=O)c2cccc(Cl)c2)ccc1-c1ccc2c(c1COc1cc(F)ccc1C)N(C)C(=O)C(C)(C)N2 [Compound 1-16]
